The results in this text go back to ChEMBL document CHEMBL2074367, “Characterization of a novel bisacridone and comparison with PSC 833 as a potent and poorly reversible modulator of P-glycoprotein” (Mol Pharmacol, 1997).

In this series the target is ATP-dependent translocase ABCB1 (Homo sapiens, UniProt P08183). Briefly: TP_TRANSPORTER: increase in Vinblastine intracellular accumulation (Vinblastine: 0.0375 uM, PBA: 1 uM) in KB8-5 cells. To be noted: kb8-5, 1 µM. The format is functional, cell-based.
Sequence of ATP-dependent translocase ABCB1 (P08183 whole entry): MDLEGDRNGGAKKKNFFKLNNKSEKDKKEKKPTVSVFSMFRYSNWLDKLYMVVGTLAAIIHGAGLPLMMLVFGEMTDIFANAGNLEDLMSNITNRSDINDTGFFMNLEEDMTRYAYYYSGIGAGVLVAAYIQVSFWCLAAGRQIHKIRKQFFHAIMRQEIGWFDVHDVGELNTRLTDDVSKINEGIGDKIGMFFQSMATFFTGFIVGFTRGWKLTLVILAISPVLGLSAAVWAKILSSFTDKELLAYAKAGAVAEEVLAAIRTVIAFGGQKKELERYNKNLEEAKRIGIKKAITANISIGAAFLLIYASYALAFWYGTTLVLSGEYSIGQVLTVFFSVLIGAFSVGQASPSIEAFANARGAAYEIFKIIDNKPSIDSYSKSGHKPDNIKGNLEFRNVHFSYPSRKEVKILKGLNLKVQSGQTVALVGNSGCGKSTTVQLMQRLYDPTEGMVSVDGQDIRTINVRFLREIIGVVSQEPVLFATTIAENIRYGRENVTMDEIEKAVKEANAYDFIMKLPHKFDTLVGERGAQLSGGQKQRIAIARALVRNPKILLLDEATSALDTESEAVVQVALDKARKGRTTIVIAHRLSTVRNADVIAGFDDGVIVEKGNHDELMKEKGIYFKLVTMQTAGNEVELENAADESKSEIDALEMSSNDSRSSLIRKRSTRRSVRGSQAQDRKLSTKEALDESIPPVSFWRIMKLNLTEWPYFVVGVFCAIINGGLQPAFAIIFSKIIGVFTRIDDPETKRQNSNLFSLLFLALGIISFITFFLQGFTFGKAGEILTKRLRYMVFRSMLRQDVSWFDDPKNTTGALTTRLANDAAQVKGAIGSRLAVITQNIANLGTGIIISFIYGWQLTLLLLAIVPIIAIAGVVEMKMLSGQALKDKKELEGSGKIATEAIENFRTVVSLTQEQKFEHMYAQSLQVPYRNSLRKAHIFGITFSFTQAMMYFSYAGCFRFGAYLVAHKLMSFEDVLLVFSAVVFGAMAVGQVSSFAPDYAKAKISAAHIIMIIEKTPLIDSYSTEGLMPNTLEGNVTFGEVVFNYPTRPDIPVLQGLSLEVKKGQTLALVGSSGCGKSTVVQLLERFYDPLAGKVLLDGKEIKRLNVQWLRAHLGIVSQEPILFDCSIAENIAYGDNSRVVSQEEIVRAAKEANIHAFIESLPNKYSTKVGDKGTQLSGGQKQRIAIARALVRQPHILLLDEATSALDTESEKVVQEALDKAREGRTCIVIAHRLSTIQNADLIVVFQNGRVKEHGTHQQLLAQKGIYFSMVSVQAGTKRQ

Turning to `O=c1c2ccccc2n(CCCn2c3ccccc3c(=O)c3ccccc32)c2ccccc12`, the Inhibition result is “inhibitor [800-900 % inhibition]”.
